# Source: BindingDB's records for patent US20240316020 (Icagen, 2024)
# pEC50: −log10 of the molar value.
# Molecular target: Potassium voltage-gated channel subfamily KQT member 2 (Homo sapiens, UniProt O43526)
# Experiment: SyncroPatch 384 (Nanion) High Throughput Electrophysiology
# Description: Human Kv7.2, Kv7.4 or Kv7.5/7.3 channels were evaluated using a voltage protocol in which cells were voltage-clamped at a holding potential of -60 mV. Potassium currents were continuously activated with a series of three voltage steps to -30 mV for 3 seconds, 40 mV for 1 second and -90 mV for 4 seconds with 12 seconds between successive voltage sweeps. Potassium currents were measured from the -90 mV repolarizing step. Baseline current was assessed for 3.5 minutes prior to the addition of 5.6 uM zinc pyrithione (1 uM for Kv7.4). Kv7.2, Kv7.4 or Kv7.5/7.3 current in the presence of zinc pyrithione was acquired over five minutes to allow channels to reach steady state activity prior to addition of test agents. Channel activity was monitored for three minutes preceding the addition of 30 uM ML-213 (3 minutes) to achieve maximum activation.
# Chain of Potassium voltage-gated channel subfamily KQT member 2 (O43526 whole entry): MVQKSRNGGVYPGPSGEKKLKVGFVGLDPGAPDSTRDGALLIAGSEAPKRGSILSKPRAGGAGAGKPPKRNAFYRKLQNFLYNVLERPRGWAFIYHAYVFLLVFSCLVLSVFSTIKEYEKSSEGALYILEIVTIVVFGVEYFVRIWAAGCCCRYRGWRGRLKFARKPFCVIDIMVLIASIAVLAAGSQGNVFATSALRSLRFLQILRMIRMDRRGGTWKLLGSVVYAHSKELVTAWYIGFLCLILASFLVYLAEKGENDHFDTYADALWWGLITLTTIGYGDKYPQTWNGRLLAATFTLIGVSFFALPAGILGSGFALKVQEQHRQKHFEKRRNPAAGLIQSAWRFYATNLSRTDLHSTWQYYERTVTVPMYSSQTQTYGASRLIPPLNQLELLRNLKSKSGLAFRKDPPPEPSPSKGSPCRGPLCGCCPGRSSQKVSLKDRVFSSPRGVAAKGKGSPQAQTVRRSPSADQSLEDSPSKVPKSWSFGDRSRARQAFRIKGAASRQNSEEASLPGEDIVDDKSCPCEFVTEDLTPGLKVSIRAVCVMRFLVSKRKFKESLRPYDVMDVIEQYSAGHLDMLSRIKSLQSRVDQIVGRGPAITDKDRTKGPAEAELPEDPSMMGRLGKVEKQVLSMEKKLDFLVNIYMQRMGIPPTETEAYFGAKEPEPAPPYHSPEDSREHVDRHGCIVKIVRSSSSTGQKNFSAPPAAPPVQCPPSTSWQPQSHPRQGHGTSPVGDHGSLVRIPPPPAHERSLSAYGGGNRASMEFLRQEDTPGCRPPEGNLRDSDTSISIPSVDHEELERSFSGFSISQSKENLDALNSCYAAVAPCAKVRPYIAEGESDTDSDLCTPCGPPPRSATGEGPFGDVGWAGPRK
structure (smiles),measurement,value
"O=C(NCc1ccnc(-n2cccn2)c1)NC1COC2(CCCC2)C1 (stereo unspecified) [US20240316020, Example 1]",pEC50,5.44
